Our source for the IC50 values is patent US4939133A, “N-substituted-2-hydroxy-α-oxo-benzeneacetamides and pharmaceutical compositions having activity as modulators of the arachidonic acid cascade” (Warner-Lambert Company, priority 1985, dated 1990).

The experiment deals with T1, human leukocyte 5-lipoxygenase (Homo sapiens, UniProt P09917).
T1 construct: endogenous in cells; host or cells: leukocytes from fresh blood of normal adult men
T1 sequence (P09917 1-674): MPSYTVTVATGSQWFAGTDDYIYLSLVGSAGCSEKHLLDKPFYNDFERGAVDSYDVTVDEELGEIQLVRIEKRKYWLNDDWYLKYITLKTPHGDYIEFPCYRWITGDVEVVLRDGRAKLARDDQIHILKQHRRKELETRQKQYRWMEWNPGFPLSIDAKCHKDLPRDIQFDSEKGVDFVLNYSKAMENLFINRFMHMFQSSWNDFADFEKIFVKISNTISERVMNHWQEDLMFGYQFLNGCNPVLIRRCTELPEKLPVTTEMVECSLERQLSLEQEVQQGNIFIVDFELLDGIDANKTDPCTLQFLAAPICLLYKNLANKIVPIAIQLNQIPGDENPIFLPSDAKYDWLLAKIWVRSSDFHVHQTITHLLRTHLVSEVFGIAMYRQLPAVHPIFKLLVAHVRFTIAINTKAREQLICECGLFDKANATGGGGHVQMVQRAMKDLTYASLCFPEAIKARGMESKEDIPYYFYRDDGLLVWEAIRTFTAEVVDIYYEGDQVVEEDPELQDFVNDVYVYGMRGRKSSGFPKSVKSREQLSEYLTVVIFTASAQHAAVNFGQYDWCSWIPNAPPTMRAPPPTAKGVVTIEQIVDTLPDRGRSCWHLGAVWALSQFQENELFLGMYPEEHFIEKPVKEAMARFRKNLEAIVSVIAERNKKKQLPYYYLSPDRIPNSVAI
The experiment in a line: 5-Lipoxygenase inhibition in human leukocytes, 5-HETE formation (5LOA1, 5LOA in Table 6). In kind it is cell-based. To be noted: 50% inhibition of 5-HETE formation, E -number means X 10^-no., read-out: IC50 (5LOA). An excerpt: To Evaluate the Effect of Each Compounds as a 5-Lipoxygenase Inhibitor in Comparison to Standard Reference Agents in Human Leukocytes (5LOAl)
The purpose of this assay is to evaluate the activity of each compound as an inhibitor of human leukocyte 5-lipoxygenase.
Arachidonic acid and calcium ionophore A23187 are obtained from Sigma (St. Louis, MO). Silica gel plates, GF are obtained from Analtech (Newark, DE). Arachidonic acid, (1-^14 C) and 5-HETE (^3 H), 5-(S)-hydroxy-6-trans, 8,11,14-cis eicosatetraenoic acid, are obtained from New England Nuclear (Boston, MA). Six percent Dextran-70 in 0.9% NaCl is obtained from Cuffer Labs (Berkeley, CA).
Preparation of Leukocytes
Fresh blood from normal adult men who had not received any drugs for at least the previous five days is obtained by the Community Research Clinic (WL/PD) using venipuncture and collected into heparinized vacuotainer tubes. To every 100 ml of pooled blood is added 25 ml of dextran solution (6% dextran -70 in 0.9% sodium chloride containing 3% dextrose) and this is mixed gently in a plastic cylinder. The mixture is left to stand at room temperature for at least 90 minutes. The upper layer which is rich in leukocytes and platelets is then carefully decanted into 50 ml plastic tubes and centrifuged at about 100×g for eight minutes in and IEC centrifuge and rotor number 269 (about 600 rpm). The supernatant fluid is discarded and the pellet is resuspended in 10 ml of 0.87% ammonium chloride for exactly two minutes. This procedure is to lyse completely contaminating red blood cells. Leukocytes are then separated by centrifugation for ten minutes. The pellet is washed three times by suspension in 20 ml PBS (sodium chloride, 7.1 g; Na2 HPO4, 1.15 g; KH2 PO4,0.2 g, and KCl, 0.2 g/L) and centrifuged as before. The final pellet is suspended in PBS containing 0.87 mM CaCl2. Viability of the cells is then checked using trypan blue exclusion method and is found to be over 90%.
5-Lipoxygenase Enzyme Assay
Leukocyte cells in suspension (0.98 ml) are incubated with or without test compounds for five minutes at 37° C. in a shaking water bath. At this time a […] mixture is perpared per 1 ml of cell suspension: 100 mM arachidonic acid, 1 μl, 0.05 μCi ^14 C-arachidonic acid in 5 μl; 1 mM calcium ionophore A23187, 10 μl (1). This mixture is added and the incubation continued for five minutes. The reaction is stopped by adding four volumes of absolute ethanol and the mixture is kept in ice for 30 minutes. The floculated precipitate is separated by centrifugation at about 37,000×g for 20 minutes (Beckman Instruments rotor number 40). The alcohol extract is taken to dryness under a stream of nitrogen and the residue is dissolved in 100-200 μl absolute ethanol. At the time any turbidity is removed by centrifugation. An aliquot (25-50 μl) is applied onto 20×20 cm silica gel TLC plate and developed using the following solvent system: diethyl ether, petroleum ether (2040°C.),acetic acid (50:50: 1 v/v). Zones of 1 cm apart are scraped from the TLC plate and transferred to mini-vials. Methanol (0.5 ml) is added to dissolve the radioactivity adsorbed to the silica gel and scintillation fluid (H. P., Beckman), 5 ml is then added and vials are counted in a liquid scintillation counter. A sample of ^3 H-5-HETE is applied and used for the identification of the formed 5-HETE. Total radioactivity in the test as well as the control samples are normalized and the amount of 5-HETE present is calculated accordingly.
IC50 values are defined as the concentrations of test agents which caused a 50% inhibition of the formation of 5-HETE as compared to control and are determined by inspection of the concentration-response curves.

For the compound `COc1ccc(CCc2ccc(NC(=O)c3ccc(C)cc3O)cc2)cc1OC` [Example 46, N-[4-[2-(3,4-Dimethoxyphenyl)ethyl]phenyl]-2-hydroxy-4-methylbenzamide], the IC50 (as a rule, the concentration that inhibits the measured activity by half) came to 500 nM.
